Data set [1] relates to Human alphaherpesvirus 1. Description: Antiviral activity against HSV-1 infected in african green monkey Vero cells assessed as inhibition of viral replication after 48 hrs by GFP reduction assay. The data set is classed as functional, organism-based.
The subject of data set [2] is Human alphaherpesvirus 1. The data set is described as follows: Antiviral activity against HSV-1 infected in african green monkey Vero cells assessed as inhibition of viral replication at 200 uM after 48 hrs by GFP reduction assay. The data set is classed as functional, organism-based.
Data set [3] deals with Human alphaherpesvirus 1. The data set is described as follows: Antiviral activity against HSV-1 infected in african green monkey Vero cells assessed as inhibition of viral replication at 50 uM after 48 hrs by GFP reduction assay. Type of data set: functional, organism-based.
The subject of data set [4] is Human alphaherpesvirus 1. The data set is described as follows: Antiviral activity against HSV-1 infected in african green monkey Vero cells assessed as inhibition of GFP gene expression after 48 hrs by RT-PCR analysis. Type of data set: functional, organism-based.
For data set [5], the system named is Human alphaherpesvirus 1. Description: Antiviral activity against HSV-1 infected in african green monkey Vero cells assessed as inhibition of viral replication at 48 uM after 48 hrs by plaque reduction assay. Type of data set: functional, organism-based. (In general: In a plaque reduction assay, fewer plaques than in the control indicate reduced infectivity or spread.)

For data set [6], the system named is Human alphaherpesvirus 1. Description: Antiviral activity against HSV-1 infected in african green monkey Vero cells assessed as inhibition of viral replication at 48 uM after 48 hrs by GFP reduction assay. The data set is classed as functional, organism-based.
For data set [7], the system named is Human alphaherpesvirus 1. The data set is described as follows: Antiviral activity against HSV-1 infected in african green monkey Vero cells assessed as inhibition of viral replication at 50 uM treated 2 hrs after post infection by GFP reduction assay. Type of data set: functional, organism-based.
Data set [8] relates to Human alphaherpesvirus 1. The data set is described as follows: Antiviral activity against HSV-1 infected in african green monkey Vero cells assessed as inhibition of viral replication at 50 uM treated for 24 hrs measured 24 hrs after drug washout by GFP reduction assay. Type of data set: functional, organism-based.
Data set [9] concerns Human alphaherpesvirus 1. Description: Antiviral activity against HSV-1 infected in african green monkey Vero cells assessed as inhibition of viral ICP4 gene expression after 48 hrs by RT-PCR analysis. Type of data set: functional, organism-based.
For the next data set, the system named is Vero. The data set is described as follows: Cytotoxicity against african green monkey Vero cells up to 200 uM. Type of data set: cell-based. Particulars: chlorocebus sabaeus.
Data set [10] relates to Human alphaherpesvirus 1. Description: Antiviral activity against HSV-1 infected in african green monkey Vero cells assessed as inhibition of viral replication at 50 uM after 48 hrs by GFP reduction assay relative to acyclovir. The data set is classed as functional, organism-based.

Activity calls are given as the source filed them. The rule behind the calls is not given here.

Take `C#CC[N+](C)(C)CCCN1c2ccccc2Sc2ccccc21`: the inhibition result in the data set with Human alphaherpesvirus 1 [1] was “inactive”.
As to `C[N+](C)(CC#N)CCCN1c2ccccc2Sc2ccc(C(F)(F)F)cc21`, in the data set on Human alphaherpesvirus 1 [1], the inhibition entry is “inactive”.
As to `CCCC[N+](C)(C)CCCN1c2ccccc2Sc2ccc(C(F)(F)F)cc21`, the inhibition entry with Human alphaherpesvirus 1 [2] is “Active”.
Regarding `C=CC[N+](C)(C)CCCN1c2ccccc2Sc2ccc(C(F)(F)F)cc21`, in the data set with Human alphaherpesvirus 1 [1], the inhibition entry was “inactive”.
As to `C[N+](C)(CCCN1c2ccccc2Sc2ccc(C(F)(F)F)cc21)Cc1ccccc1Cl`, in the data set with Human alphaherpesvirus 1 [3], the inhibition entry was “inactive”. The inhibition entry in the data set with Human alphaherpesvirus 1 [2] is “Active”.
Turning to `O[C@]12C=C(c3nccc4c3[nH]c3ccccc34)[C@@H]3CCN(CCCC/C=C\CC1)C[C@@]31C[C@@H]3/C=C\CCCCN3[C@H]12`, in the data set on Human alphaherpesvirus 1 [4], the inhibition entry is “inactive”.
Consider `C[N+](C)(CCCN1c2ccccc2Sc2ccc(C(F)(F)F)cc21)Cc1ccccc1`, for which the inhibition entry with Human alphaherpesvirus 1 [1] is “inactive”.
On to `Nc1nc2c(ncn2COCCO)c(=O)[nH]1`, for which the inhibition entry in the data set on Human alphaherpesvirus 1 [5], in the data set with Human alphaherpesvirus 1 [6], in the data set on Human alphaherpesvirus 1 [4], with Human alphaherpesvirus 1 [3], in the data set on Human alphaherpesvirus 1 [7] and in the data set on Human alphaherpesvirus 1 [8] was “Active” throughout. In the data set with Human alphaherpesvirus 1 [9], the inhibition result was “Active”.
In the case of `C[N+](C)(CCCN1c2ccccc2Sc2ccc(C(F)(F)F)cc21)Cc1ccc(Cl)cc1.[Cl-]`, the inhibition entry in the data set with Human alphaherpesvirus 1 [5], in the data set on Human alphaherpesvirus 1 [6], with Human alphaherpesvirus 1 [4], with Human alphaherpesvirus 1 [10] and with Human alphaherpesvirus 1 [9] was “Active” in each case. For the same compound, the inhibition result with Human alphaherpesvirus 1 [7] and in the data set with Human alphaherpesvirus 1 [8] was “inactive” in each case. The Activity result in the data set on Vero is “Non-toxic”.
Turning to `C[N+](C)(CCCN1c2ccccc2Sc2ccc(C(F)(F)F)cc21)Cc1cccc(Cl)c1`, in the data set on Human alphaherpesvirus 1 [3], the inhibition entry is “inactive”. Also, the inhibition entry in the data set with Human alphaherpesvirus 1 [2] was “Active”.
On to `C#CC[N+](C)(C)CCCN1c2ccccc2Sc2ccc(C(F)(F)F)cc21`, for which the inhibition result with Human alphaherpesvirus 1 [1] was “inactive”.

For the origin of these results see ChEMBL document CHEMBL2069202, “Antiviral activity and synthesis of quaternized promazine derivatives against HSV-1” (Bioorg Med Chem Lett, 2012).
